Reference: article PMC6185959 (2018)

How the values were obtained:
[1] = system: Pu22 (MYC G4) (DNA, G4) TGAGGGTGGGGAGGGTGGGGAA; assay: WaterLOGSY NMR; conditions: 50 mM KCl, Tris-d11 pH 6.4, 20 °C, 5 µM oligo, 100 µM compound
[2] = system: Alexa Fluor 647-Pu27 (MYC G4) (DNA, G4) TGGGGAGGGTGGGGAGGGTGGGGAAGG; assay: fluorescence intensity titration; conditions: 50 mM KCl, 25 mM Tris pH 6.4, 2-3% DMSO, RT, 50 nM oligo, 2:1 model
[3] = system: 5'-biotin Pu27 (MYC G4) (DNA, G4) TGGGGAGGGTGGGGAGGGTGGGGAAGG; assay: SPR; conditions: 30 mM KCl; 10 mM Tris pH 6.4, 3% DMSO, 0.01% Tween-20; 1:1 Langmuir, highest affinity site
[4] = system: Pu22 (MYC G4) (DNA, G4) TGAGGGTGGGGAGGGTGGGGAA; assay: CD melting; conditions: 30 mM KCl; 10 mM Tris pH 6.3, 1% DMSO; 10 µM oligo, 40 µM compound; Table S2 prints 7.6 ± 0.5
[5] = system: Pu27 (MYC G4) (DNA, G4) TGGGGAGGGTGGGGAGGGTGGGGAAGG; assay: CD melting; conditions: 30 mM KCl; 10 mM Tris pH 6.3, 1% DMSO; 10 µM oligo, 40 µM compound
[6] = system: 131 (DNA, G4) TGAGGGTGGGTAAGGGTGGGTAA; assay: CD melting; conditions: 30 mM KCl; 10 mM Tris pH 6.3, 1% DMSO; 10 µM oligo, 40 µM compound
[7] = system: 122 (DNA, G4) TGAGGGTGGGTAGGGTAGGGTAA; assay: CD melting; conditions: 30 mM KCl; 10 mM Tris pH 6.3, 1% DMSO; 10 µM oligo, 40 µM compound
[8] = system: 221 (DNA, G4) TGAGGGTAGGGTAGGGTGGGTAA; assay: CD melting; conditions: 30 mM KCl; 10 mM Tris pH 6.3, 1% DMSO; 10 µM oligo, 40 µM compound
[9] = system: 333 (DNA, G4) TGAGGGTTAGGGTAAGGGTTAGGGTAA; assay: CD melting; conditions: 30 mM KCl; 10 mM Tris pH 6.3, 1% DMSO; 10 µM oligo, 40 µM compound
[10] = system: GAT Tail (A25T) (DNA, G4) TGAGGGTGGGGAGGGTGGGGAT; assay: CD melting; conditions: 30 mM KCl; 10 mM Tris pH 6.3, 1% DMSO; 10 µM oligo, 40 µM compound
[11] = system: no tail (DNA, G4) GGGTGGGGAGGGTGGG; assay: CD melting; conditions: 30 mM KCl; 10 mM Tris pH 6.3, 1% DMSO; 10 µM oligo, 40 µM compound
[12] = system: BCl2 (DNA, G4) AGGGGCGGGCGCGGGAGGAAGGGGGCGGGA; assay: CD melting; conditions: 30 mM KCl; 10 mM Tris pH 6.3, 1% DMSO; 10 µM oligo, 40 µM compound
[13] = system: HIF1a (DNA, G4) GGGAGGGAGAGGGGGCGGG; assay: CD melting; conditions: 30 mM KCl; 10 mM Tris pH 6.3, 1% DMSO; 10 µM oligo, 40 µM compound
[14] = system: MYB (DNA, G4) GGAGGAGGAGGTCACGGAGGAGGAGGAGAAGGAGGAGGAGGA; assay: CD melting; conditions: 30 mM KCl; 10 mM Tris pH 6.3, 1% DMSO; 10 µM oligo, 40 µM compound
[15] = system: dsDNA (DNA, duplex) CAATCGGATCGAATTCGATCCGATTG; assay: CD melting; conditions: 30 mM KCl; 10 mM Tris pH 6.3, 1% DMSO; 10 µM oligo, 40 µM compound
[16] = system: MYC Pu22 G14T/G23T (NMR, 121) (DNA, G4) TGAGGGTGGGTAGGGTGGGTAA; assay: solution NMR structure; conditions: 50 mM KCl; 25 mM Tris-d11 pH 6.4, 25 °C; twofold excess compound; 5' and 3' tetrads
[17] = system: MYC Pu22 G14T/G23T (NMR, 121) (DNA, G4) TGAGGGTGGGTAGGGTGGGTAA; assay: 1H NMR titration, imino shifts; conditions: 50 mM KCl; 25 mM Tris-d11 pH 6.4, 10% DMSO-d6, 25 °C; overall KD, non-cooperative fit
[18] = system: Alexafluor647-KRAS (DNA, G4) AGGGCGGTGTGGGAAGAGGGAAGAGGGGGAGGCAG; assay: fluorescence intensity titration; conditions: 50 mM KCl; 25 mM Tris pH 6.4, 2-3% DMSO, RT; 50 nM oligo; 2:1 model
[19] = system: Alexafluor647-BCL2 (DNA, G4) AGGGGCGGGCGCGGGAGGAAGGGGGCGGGA; assay: fluorescence intensity titration; conditions: 50 mM KCl; 25 mM Tris pH 6.4, 2-3% DMSO, RT; 50 nM oligo; 2:1 model
[20] = system: Alexafluor647-Telomeric DNA (DNA, G4) TTAGGGTTAGGGTTAGGGTTAGGGTTA; assay: fluorescence intensity titration; conditions: 50 mM KCl; 25 mM Tris pH 6.4, 2-3% DMSO, RT; 50 nM oligo; 2:1 model
[21] = system: Alexafluor647-VEGF (DNA, G4) CGGGGCGGGCCGGGGGCGGGGT; assay: fluorescence intensity titration; conditions: 50 mM KCl; 25 mM Tris pH 6.4, 2-3% DMSO, RT; 50 nM oligo; 2:1 model
[22] = system: Alexafluor647-NRAS (RNA, G4) UGUGGGAGGGGCGGGUCUGGG; assay: fluorescence intensity titration; conditions: 50 mM KCl; 25 mM Tris pH 6.4, 2-3% DMSO, RT; 50 nM oligo; 2:1 model

## CN[C@H](C(=O)O)C(C)C
[1]; internal non-binding control
  binding: no

## Cc1ccc(NC(=O)c2c(C)oc3ccc(O)c(CN4CCCCCC4)c23)cc1
[2]
  KD: 0.0232 ± 0.0076 mM

## Cc1oc2ccc(O)c(CN3CCCCCC3)c2c1C(=O)Nc1ccc(C(F)(F)F)cc1
[3]
  KD: 1.4 ± 1.2 µM
[4]
  ΔTm: 7.4 ± 0.5 °C
[5]
  ΔTm: 7.5 ± 2.0 °C
[6]
  ΔTm: 4.6 ± 0.3 °C
[7]
  ΔTm: 7.0 ± 0.3 °C
[8]
  ΔTm: 4.0 ± 1.0 °C
[9]
  ΔTm: 0.0 ± 1.0 °C
[10]
  ΔTm: 4.5 ± 0.8 °C
[11]
  ΔTm: 4.3 ± 1.7 °C
[12]
  ΔTm: 4.2 ± 0.4 °C
[13]
  ΔTm: 0.2 ± 1.1 °C
[14]
  ΔTm: 1.5 ± 0.3 °C
[15]
  ΔTm: 0.6 ± 0.7 °C
[1]
  binding: yes
[16]
  binding: yes
[17]
  KD: 0.0165 ± 0.0011 mM
[2]; Table S1 prints 9.1 ± 1.1
  KD: 0.0094 ± 0.0011 mM
[18]
  KD: 0.0442 ± 0.0038 mM
[19]
  KD: 0.0173 ± 0.0044 mM
[20]
  KD: 0.0403 ± 0.01 mM
[21]
  KD: 0.0183 ± 0.0034 mM
[22]
  binding: weak
